Each structure is given as a SMILES string.

The test has as its target T1, Tyrosine-protein phosphatase non-receptor type 11 (Homo sapiens, UniProt Q06124).
T1 sequence (Q06124 whole entry): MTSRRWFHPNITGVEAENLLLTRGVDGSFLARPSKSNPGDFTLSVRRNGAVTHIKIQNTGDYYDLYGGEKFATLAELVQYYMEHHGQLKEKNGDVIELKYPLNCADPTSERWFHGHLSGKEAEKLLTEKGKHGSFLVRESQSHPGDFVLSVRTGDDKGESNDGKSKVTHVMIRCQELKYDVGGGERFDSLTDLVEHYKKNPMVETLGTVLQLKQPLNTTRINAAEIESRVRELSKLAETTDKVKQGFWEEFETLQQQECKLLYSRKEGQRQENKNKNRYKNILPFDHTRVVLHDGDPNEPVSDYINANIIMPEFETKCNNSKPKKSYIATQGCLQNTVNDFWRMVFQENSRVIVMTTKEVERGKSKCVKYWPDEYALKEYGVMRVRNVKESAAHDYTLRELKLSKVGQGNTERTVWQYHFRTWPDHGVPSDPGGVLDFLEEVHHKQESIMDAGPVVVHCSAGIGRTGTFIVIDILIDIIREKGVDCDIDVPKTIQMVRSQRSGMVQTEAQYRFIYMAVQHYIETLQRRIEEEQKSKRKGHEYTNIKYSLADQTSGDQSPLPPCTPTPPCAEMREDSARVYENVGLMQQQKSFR
Briefly: Inhibition Assay: In vitro Shp2 PTP activity inhibition assay for determination of IC50 was performed with a recombinant GST-Shp2 PTP domain protein using 6,8-difluoro-4-methylumbelliferyl phosphate (DiFMUP, Invitrogen) as the substrate similar to that described previously (Chen, et al., Discovery of a novel shp2 protein tyrosine phosphatase inhibitor. Mol Pharmacol 2006; 70:562-70).

The term IC50 denotes the concentration that inhibits the measured activity by half. As for `O=C(O)C(O)CC(=O)N1CCc2cc(S(=O)(=O)N3CCN(c4cccc(Cl)c4)CC3)ccc21` (stereo unspecified), the IC50 worked out at 8.2 µM.

Values taken from ChEMBL document CHEMBL3639170, “Carboxy isatin hydrazones and their esters as Shp2 inhibitors” (2014).
